Results on two compounds are retold here after the NIST ThermoML archive (doi:10.1016/j.fluid.2008.11.014).

A short description of series [1]: refractive index (Na D-line) (dimensionless). As to conditions: 298.2 K; 101.33 kPa; Liquid; Standard Abbe refractometry.
For series [2] the following is noted: 298.2 K; 101.33 kPa; Liquid; Vibrating tube method.

The structures appear in SMILES notation. Numbers after ± are expanded uncertainties.

`CC(C)OC(C)C` [diisopropyl ether]: in series [1], the refractive index is 1.3653 ± 0.0007. Also, the mass density in series [2] turned out to be 718.79 ± 0.3 kg/m3.
As for `CCCO` [propan-1-ol], the refractive index in series [1] is on record as 1.3835 ± 0.0007. Besides, the mass density in series [2] was 799.62 ± 0.24 kg/m3.
